Laboratory results published in patent publication US8940756B2, “Dihydronaphthyridines and related compounds useful as kinase inhibitors for the treatment of proliferative diseases” (Deciphera Pharmaceuticals, Inc., priority 2012, dated 2015).

Tests used:
[1] = target: T1, c-KIT T670I kinase (Seq ID no. 6) (Homo sapiens, UniProt P10721, T670I); test: c-KIT T670I Kinase Assay; format: biochemical; conditions: enzymatic assay, ATP 200 uM
T1 construct: GST (N); TEV cleavage site (N); purchased deCODE Biostructures
T1 sequence (P10721 544-976 T670I): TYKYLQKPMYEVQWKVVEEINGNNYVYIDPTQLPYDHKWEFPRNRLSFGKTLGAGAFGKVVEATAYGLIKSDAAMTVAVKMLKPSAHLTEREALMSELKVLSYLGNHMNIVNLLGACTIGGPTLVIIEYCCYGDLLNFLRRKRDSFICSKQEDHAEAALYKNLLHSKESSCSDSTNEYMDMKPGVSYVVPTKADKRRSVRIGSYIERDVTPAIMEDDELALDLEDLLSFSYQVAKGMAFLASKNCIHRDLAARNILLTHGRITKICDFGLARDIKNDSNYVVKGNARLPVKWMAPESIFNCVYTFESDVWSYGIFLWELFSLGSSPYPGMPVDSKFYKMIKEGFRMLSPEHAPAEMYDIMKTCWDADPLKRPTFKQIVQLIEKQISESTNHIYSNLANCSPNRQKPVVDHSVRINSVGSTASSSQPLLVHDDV
Experimental: (§1) In this assay, the oxidation of NADH (measured by decrease in absorbance at 340 nm) was continuously monitored spectrophotometrically. […] The inhibition reaction was started by mixing serial diluted test compound with the above reaction mixture. The absorption at 340 nm was monitored continuously for 5 hours at 30° C. on Synergy 2 plate reader (BioTech). […] The protein construct was prepared by deCODE Biostructures using procedures known in the art. The construct contains […] of cKit, an N-terminal tag, a GST-fusion sequence and a TEV cleavage site. This construct is identical to Seq ID no.

[2] = target: T2, c-KIT D816V kinase (Seq ID no. 4) (Homo sapiens, UniProt P10721, D816V); test: c-KIT D816V kinase Assay; format: biochemical; conditions: enzymatic assay, ATP 200 uM
T2 construct: D816V c-KIT (residues T544-V976 with N-terminal GST fusion, 16 nM); purchased deCODE Biostructures
T2 sequence (P10721 544-976 D816V): as the sequence (P10721 544-976 T670I) above, with I127T, D273V counted along it
Experimental: In this assay, the oxidation of NADH (measured by decrease in absorbance at 340 nm) was continuously monitored spectrophotometrically. […] The inhibition reaction was started by mixing serial diluted test compound with the above reaction mixture. The absorption at 340 nm was monitored continuously for 5 hours at 30° C. on Synergy 2 plate reader (BioTech).
The protein construct was prepared by deCODE Biostructures using procedures known in the art. The construct contains residues T544-V976 of cKit, an N-terminal tag, a GST-fusion sequence and a TEV cleavage site. This construct is identical to Seq ID no. 1 except for the D816V mutation.

[3] = target: T3, c-KIT kinase (Seq ID no. 1) (Homo sapiens, UniProt P10721); test: c-KIT Kinase Assay (pyruvate kinase/lactate dehydrogenase coupled); format: biochemical; conditions: enzymatic assay, ATP 200 μM; read-out: KIT (wt)
T3 construct: GST (N); TEV cleavage site (N); purchased deCODE Biostructures
T3 sequence (P10721 with tags, fused parts or gaps): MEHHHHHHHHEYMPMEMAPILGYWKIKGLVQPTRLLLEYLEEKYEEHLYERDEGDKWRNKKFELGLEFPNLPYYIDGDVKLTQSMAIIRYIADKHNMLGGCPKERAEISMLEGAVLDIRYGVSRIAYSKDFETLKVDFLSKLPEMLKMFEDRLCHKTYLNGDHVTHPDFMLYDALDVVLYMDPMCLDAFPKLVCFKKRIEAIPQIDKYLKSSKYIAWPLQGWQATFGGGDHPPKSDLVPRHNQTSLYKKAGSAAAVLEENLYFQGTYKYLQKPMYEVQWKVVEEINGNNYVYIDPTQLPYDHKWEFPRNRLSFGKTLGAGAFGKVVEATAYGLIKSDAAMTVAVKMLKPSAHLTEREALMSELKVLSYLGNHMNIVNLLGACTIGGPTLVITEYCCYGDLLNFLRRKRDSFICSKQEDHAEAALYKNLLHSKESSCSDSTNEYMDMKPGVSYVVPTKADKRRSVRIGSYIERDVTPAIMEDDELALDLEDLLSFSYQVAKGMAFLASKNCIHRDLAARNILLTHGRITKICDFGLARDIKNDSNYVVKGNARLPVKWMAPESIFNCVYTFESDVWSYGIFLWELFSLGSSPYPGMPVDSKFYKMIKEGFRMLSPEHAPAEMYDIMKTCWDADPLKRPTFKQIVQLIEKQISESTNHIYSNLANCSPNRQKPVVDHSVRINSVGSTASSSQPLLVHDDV
Experimental: In this assay, the oxidation of NADH (measured by decrease in absorbance at 340 nm) was continuously monitored spectrophotometrically. […] The absorption at 340 nm was monitored continuously for 2 hours at 30° C. on Synergy 2 (BioTeK). The reaction rate was calculated using the 0 to 1 h time frame. Percent inhibition was obtained by comparison of reaction rate with that of a control (i.e. with no test compound). IC50 values were calculated from a series of percent inhibition values determined at a range of inhibitor concentrations using software routines as implemented in the GraphPad Prism software package. The protein construct was prepared by deCODE Biostructures using procedures known in the art. The construct contains […] of cKit, an N-terminal tag, a GST-fusion sequence and a TEV cleavage site.

[4] = target: T4, c-KIT D816H kinase (Seq ID no. 3) (Homo sapiens, UniProt P10721, D816H); test: c-KIT D816H Kinase Assay; format: biochemical; conditions: enzymatic assay, ATP 200 μM
T4 construct: GST (N); TEV cleavage site (N); purchased deCODE Biostructures
T4 sequence (P10721 544-976 D816H): as the sequence (P10721 544-976 T670I) above, with I127T, D273H counted along it
Experimental: as §1, with “6” for “5”, “no. 1 except for the D816H mutation.” for “no.”

[5] = target: Phospho-KIT (Tyr719) in GIST48 cells (Homo sapiens, UniProt P10721); test: GIST48 KIT Western Blot; format: cell-based; conditions: 4 hours, read-out: pKIT suppression by western blot analysi GIST48
Chain of Phospho-KIT (Tyr719) in GIST48 cells (P10721 whole entry V560D/D820A, form open): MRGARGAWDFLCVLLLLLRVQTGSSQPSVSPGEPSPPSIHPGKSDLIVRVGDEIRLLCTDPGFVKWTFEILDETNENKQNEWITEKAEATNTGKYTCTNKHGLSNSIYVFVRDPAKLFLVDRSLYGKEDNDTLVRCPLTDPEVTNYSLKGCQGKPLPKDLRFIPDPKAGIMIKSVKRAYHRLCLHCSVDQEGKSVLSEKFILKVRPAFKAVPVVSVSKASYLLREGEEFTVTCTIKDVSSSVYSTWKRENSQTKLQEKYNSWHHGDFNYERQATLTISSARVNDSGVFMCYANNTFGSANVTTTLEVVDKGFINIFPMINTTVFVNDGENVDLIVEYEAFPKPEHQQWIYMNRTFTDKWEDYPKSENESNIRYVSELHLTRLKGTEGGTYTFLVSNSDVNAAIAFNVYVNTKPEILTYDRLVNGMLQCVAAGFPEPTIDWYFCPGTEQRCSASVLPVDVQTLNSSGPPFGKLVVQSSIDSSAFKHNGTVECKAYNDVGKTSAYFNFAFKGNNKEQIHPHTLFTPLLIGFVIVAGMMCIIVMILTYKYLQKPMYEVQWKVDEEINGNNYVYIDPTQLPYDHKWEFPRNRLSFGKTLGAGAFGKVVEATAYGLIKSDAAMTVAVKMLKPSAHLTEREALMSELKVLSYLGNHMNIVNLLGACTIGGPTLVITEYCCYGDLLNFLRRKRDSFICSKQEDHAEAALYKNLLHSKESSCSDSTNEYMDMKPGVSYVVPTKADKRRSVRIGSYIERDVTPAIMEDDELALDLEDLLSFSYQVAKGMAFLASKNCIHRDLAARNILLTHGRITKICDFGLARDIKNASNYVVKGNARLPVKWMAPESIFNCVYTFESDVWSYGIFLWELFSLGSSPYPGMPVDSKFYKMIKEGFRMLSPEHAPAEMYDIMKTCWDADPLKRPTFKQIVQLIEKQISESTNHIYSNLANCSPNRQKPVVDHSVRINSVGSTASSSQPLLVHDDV
Experimental: (§2) GIST48, GIST430, and GIST882 cells were obtained from J. Fletcher (Brigham and Women's Hospital, Boston, Mass.). GIST T1 cells were obtained from B. Rubin (Cleveland Clinic, Cleveland, Ohio) and Professor Takahiro Taguchi (Kochi Medical School, Nankoku, Kochi, Japan). […] GIST430 cells were grown in Ham's F10 medium supplemented with 15% characterized fetal bovine serum (Invitrogen, Carlsbad, Calif.), 30 mg/L bovine pituitary extract (BD Biosciences, San Jose, Calif.), 0.5% Mito+ serum extender (BD Biosciences, San Jose, Calif.), 1 unit/mL penicillin G, 1 μg/ml streptomycin, and 0.29 mg/mL L-glutamine at 37° C., 5% CO2, 95% humidity. GIST T1 cells were grown in DMEM medium supplemented with 10% characterized fetal bovine serum (Invitrogen, Carlsbad, Calif.), 1 unit/mL penicillin G, 1 ng/ml streptomycin, and 0.29 mg/mL L-glutamine at 37° C., 5% CO2, and 95% humidity. Cells were allowed to expand until reaching 70-95% confluence at which point they were subcultured or harvested for assay use.
(§3) Two hundred fifty thousand cells were added per well in a 24-well tissue-culture treated plate. Cells were then incubated overnight at 37° C., 5% CO2, 95% humidity. Medium was aspirated, cells were washed with PBS, and serum-free RPMI1640 medium was added. A serial dilution of test compound was added to plates containing cells and plates were incubated for 4 hours at 37° C., 5% CO2, 95% humidity. Cells were washed with PBS, then lysed. Cell lysates were separated by SDS-PAGE and transferred to PVDF. Phospho-KIT (Tyr719) was detected using an antibody from Cell Signaling Technology (Beverly, Mass.), ECL Plus detection reagent (GE Healthcare, Piscataway, N.J.) and a Molecular Devices Storm 840 phosphorimager in fluorescence mode. Blots were stripped and probed for total KIT using an antibody from Santa Cruz Biotech (Santa Cruz, Calif.). IC50 values were calculated using Prism software (Graphpad, San Diego, Calif.).

[6] = target: Phospho-KIT (Tyr719) in GIST430 cells (Homo sapiens, UniProt P10721); test: GIST430 KIT Western Blot; format: cell-based; conditions: 4 hours, read-out: pKIT suppression by western blot analysi GIST430
Chain of Phospho-KIT (Tyr719) in GIST430 cells (P10721 with tags, fused parts or gaps DEL560-576/V654A, form open): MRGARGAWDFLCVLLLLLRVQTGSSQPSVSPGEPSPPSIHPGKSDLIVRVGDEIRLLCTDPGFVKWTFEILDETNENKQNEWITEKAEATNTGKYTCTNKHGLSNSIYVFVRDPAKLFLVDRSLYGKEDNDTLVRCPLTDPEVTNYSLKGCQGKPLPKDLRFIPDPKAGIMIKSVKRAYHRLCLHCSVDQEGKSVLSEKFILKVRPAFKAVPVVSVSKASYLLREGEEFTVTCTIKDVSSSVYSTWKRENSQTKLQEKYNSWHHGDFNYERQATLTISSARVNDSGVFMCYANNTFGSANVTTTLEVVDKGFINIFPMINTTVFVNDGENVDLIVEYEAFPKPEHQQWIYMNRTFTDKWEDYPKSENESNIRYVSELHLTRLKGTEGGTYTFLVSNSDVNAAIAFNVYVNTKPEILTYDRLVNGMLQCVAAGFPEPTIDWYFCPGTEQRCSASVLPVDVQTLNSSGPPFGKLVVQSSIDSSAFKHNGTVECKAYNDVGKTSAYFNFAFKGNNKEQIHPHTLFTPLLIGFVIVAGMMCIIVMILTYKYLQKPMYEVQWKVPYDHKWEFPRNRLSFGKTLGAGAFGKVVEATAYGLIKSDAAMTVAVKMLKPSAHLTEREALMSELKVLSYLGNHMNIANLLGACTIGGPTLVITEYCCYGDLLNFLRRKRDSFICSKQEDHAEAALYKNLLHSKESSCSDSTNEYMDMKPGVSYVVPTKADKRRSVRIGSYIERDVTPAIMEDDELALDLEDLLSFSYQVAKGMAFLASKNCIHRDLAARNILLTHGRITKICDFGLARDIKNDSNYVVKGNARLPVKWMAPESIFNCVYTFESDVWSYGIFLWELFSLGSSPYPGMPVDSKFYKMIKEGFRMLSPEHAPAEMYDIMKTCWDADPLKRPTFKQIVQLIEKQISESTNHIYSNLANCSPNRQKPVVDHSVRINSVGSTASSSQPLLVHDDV
Experimental: as §2
as §3, with “One” for “Two”, “Ham's F10” for “RPMI1640”

| SMILES | IC50 [1] | IC50 [2] | IC50 [3] | IC50 [4] | IC50 [5] | IC50 [6] |
| --- | --- | --- | --- | --- | --- | --- |
| CCn1c(=O)c(-c2cc(NC(=O)Nc3ccccc3)c(F)cc2Cl)cc2cnc(NC3CCOC3)cc21 (stereo not drawn) [Example 47, 1-(4-chloro-5-(1-ethyl-2-oxo-7-(THF-3-ylamino)-1,2-dihydro-1,6-naphthyridin-3-yl)-2-fluorophenyl)-3-phenylurea] | > 1000 nM | 10 to 100 nM | < 10 nM |  |  |  |
| CCn1c(=O)c(-c2cc(NC(=O)Nc3ccccc3)c(F)cc2Cl)cc2cnc(NCCS(C)(=O)=O)cc21 [Example 48, 1-(4-chloro-5-(1-ethyl-7-(2-(methylsulfonyl)ethylamino)-2-oxo-1,2-dihydro-1,6-naphthyridin-3-yl)-2-fluorophenyl)-3-phenylurea] | > 1000 nM | 100 to 1000 nM | 10 to 100 nM |  |  |  |
| CCn1c(=O)c(-c2cc(NC(=O)Nc3ccccc3)c(F)cc2Cl)cc2cnc(NC3CCN(C)C3)cc21 (stereo not drawn) [Example 49, 1-(4-chloro-5-(1-ethyl-7-(1-methylpyrrolidin-3-ylamino)-2-oxo-1,2-dihydro-1,6-naphthyridin-3-yl)-2-fluorophenyl)-3-phenylurea] | 100 to 1000 nM | 100 to 1000 nM | 10 to 100 nM |  |  |  |
| CCn1c(=O)c(-c2cc(NC(=O)Nc3ccccc3)c(F)cc2Br)cc2cnc(NCCS(C)(=O)=O)cc21 [Example 52, 1-(4-bromo-5-(1-ethyl-7-(2-(methylsulfonyl)ethylamino)-2-oxo-1,2-dihydro-1,6-naphthyridin-3-yl)-2-fluorophenyl)-3-phenylurea] |  |  | < 10 nM | 100 to 1000 nM |  |  |
| CCn1c(=O)c(-c2cc(NC(=O)Nc3ccccc3)c(F)cc2F)cc2cnc(NC(C)=O)cc21 [Example 66, 1-(5-(7-acetamido-1-ethyl-2-oxo-1,2-dihydro-1,6-naphthyridin-3-yl)-2,4-difluorophenyl)-3-phenylurea] | 10 to 100 nM | 10 to 100 nM | < 10 nM |  | 100 to 1000 nM | 10 to 100 nM |
| CCn1c(=O)c(-c2cc(NC(=O)Nc3ccccc3)c(F)cc2F)cc2cnc(NC(=O)CC#N)cc21 [Example 75, 2-cyano-N-(3-(2,4-difluoro-5-(3-phenylureido)phenyl)-1-ethyl-2-oxo-1,2-dihydro-1,6-naphthyridin-7-yl)acetamide] | 10 to 100 nM | 100 to 1000 nM | < 10 nM | 100 to 1000 nM |  |  |
| CCn1c(=O)c(-c2cc(NC(=O)Nc3ccccc3)c(F)cc2C#N)cc2cnc(NC)cc21 [Example 76, 1-(4-cyano-5-(1-ethyl-7-(methylamino)-2-oxo-1,2-dihydro-1,6-naphthyridin-3-yl)-2-fluorophenyl)-3-phenylurea] | 100 to 1000 nM | 10 to 100 nM | < 10 nM |  |  |  |
| CCn1c(=O)c(-c2cc(NC(=O)Nc3ccccc3)c(F)cc2Cl)cc2cnc(NC(=O)[C@@H]3CCCN3)cc21 [Example 85, (S)—N-(3-(2-chloro-4-fluoro-5-(3-phenylureido)phenyl)-1-ethyl-2-oxo-1,2-dihydro-1,6-naphthyridin-7-yl)pyrrolidine-2-carboxamide] | 100 to 1000 nM | 10 to 100 nM | 10 to 100 nM |  |  |  |
| CCn1c(=O)c(-c2cc(NC(=O)Nc3ccc(F)c(CN(C)C)c3)c(F)cc2Cl)cc2cnc(NC)cc21 [Example 94, 1-(4-chloro-5-(1-ethyl-7-(methylamino)-2-oxo-1,2-dihydro-1,6-naphthyridin-3-yl)-2-fluorophenyl)-3-(3-((dimethylamino)methyl)-4-fluorophenyl)urea] | 10 to 100 nM | > 1000 nM | < 10 nM |  |  |  |
| CCn1c(=O)c(-c2cc(NC(=O)Nc3ccc(F)c(CN4CCCC4)c3)c(F)cc2Cl)cc2cnc(NC)cc21 [Example 97, 1-(4-chloro-5-(1-ethyl-7-(methylamino)-2-oxo-1,2-dihydro-1,6-naphthyridin-3-yl)-2-fluorophenyl)-3-(4-fluoro-3-(pyrrolidin-1-ylmethyl)phenyl)urea] | 10 to 100 nM | > 1000 nM | < 10 nM | 10 to 100 nM |  |  |
| CCn1c(=O)c(-c2cc(NC(=O)Nc3ccc(F)c(CN4CCOCC4)c3)c(F)cc2Cl)cc2cnc(NC=O)cc21 [Example 107, N-(3-(2-chloro-4-fluoro-5-(3-(4-fluoro-3-(morpholinomethyl)phenyl)ureido)phenyl)-1-ethyl-2-oxo-1,2-dihydro-1,6-naphthyridin-7-yl)formamide] | 10 to 100 nM | > 1000 nM | 10 to 100 nM |  |  |  |
| CCn1c(=O)c(-c2cc(NC(=O)Nc3ccccc3)c(F)cc2C)cc2cnc(Nc3ccc(C)nc3)cc21 [Example 111, 1-(5-(1-ethyl-7-((6-methylpyridin-3-yl)amino)-2-oxo-1,2-dihydro-1,6-naphthyridin-3-yl)-2-fluoro-4-methylphenyl)-3-phenylurea] | 100 to 1000 nM | 10 to 100 nM | 10 to 100 nM |  |  |  |
